Test systems include Escherichia coli; Salmonella sp.; Yersinia enterocolitica; Escherichia coli K88; Escherichia coli K99; Escherichia coli UB1005; Escherichia coli 078.
Test in all cases: ≥ marks a high value that may be exact or a test limit, other limits are often not marked, values filed in µg/mL are converted to µM
In assay [1] the test system is Escherichia coli DH5alpha.
Assay [2] has as its system Franconibacter helveticus DSM 18396.
In assay [3] the test system is Bacillus subtilis DSM 347.
Assay [4] has as its system Kocuria rhizophila DSM 348.
In assay [5] the test system is Staphylococcus aureus ATCC 33591.
The subject of assay [6] is Staphylococcus epidermidis ATCC 35984.
The test system of assay [7] is Pseudomonas aeruginosa ATCC 27853.
In assay [8] the test system is Staphylococcus aureus ATCC 25923.
The subject of assay [9] is Escherichia coli NEB5alpha.
In assay [10] the test system is Bacillus subtilis ATCC 6051.
Assay [11] relates to Escherichia coli ATCC 25922.
Assay [12] has as its system Staphylococcus aureus ATCC 29213.
The subject of assay [13] is Bacillus subtilis CMCC 63501.
Assay [14] concerns Staphylococcus epidermidis ATCC 12228.
The subject of assay [15] is Enterococcus faecalis ATCC 29212.
Assay [16] deals with Salmonella enterica subsp. enterica serovar Pullorum C79-13.
Assay [17] concerns Salmonella enterica subsp. enterica serovar Typhimurium C77-31.
The test system of assay [18] is Salmonella enterica subsp. enterica serovar Enteritidis.
Assay [19] relates to Cryptococcus neoformans ATCC 32264.
Assay [20] concerns Candida albicans ATCC 10231.
Assay [21] relates to Staphylococcus aureus ATCC 43300.
Assay [22] deals with Salmonella enterica subsp. enterica serovar Typhimurium ATCC 14028.

Each structure is given as a SMILES string. Converted amounts (≈) assume the structure as drawn. Bounds are passed on as bounds.

For the molecule `CC[C@H](C)[C@H](NC(=O)CN)C(=O)NCC(=O)N[C@@H](CCCCN)C(=O)N[C@@H](Cc1ccccc1)C(=O)N[C@@H](C)C(=O)N[C@@H](Cc1cnc[nH]1)C(=O)N[C@@H](CO)C(=O)N[C@@H](C)C(=O)N[C@@H](CCCCN)C(=O)N[C@@H](CCCCN)C(=O)N[C@@H](Cc1ccccc1)C(=O)NCC(=O)N[C@@H](CCCCN)C(=O)N[C@@H](C)C(=O)N[C@@H](Cc1ccccc1)C(=O)N[C@H](C(=O)NCC(=O)N[C@@H](CCC(=O)O)C(=O)N[C@H](C(=O)N[C@@H](CCSC)C(=O)N[C@@H](CC(N)=O)C(=O)N[C@@H](CO)C(=O)O)[C@@H](C)CC)C(C)C` [GIGKFAHSAKKFGKAFVGEIMNS], the MIC was not below 128 µM in assay [1], not below 128 µM in assay [2], not below 32 µM in assay [3] and not below 256 µM in assay [4].

Consider `CC[C@H](C)[C@H](NC(=O)CN)C(=O)NCC(=O)N[C@@H](CCCCN)C(=O)N[C@@H](Cc1ccccc1)C(=O)N[C@@H](CC(C)C)C(=O)N[C@@H](Cc1cnc[nH]1)C(=O)N[C@@H](CO)C(=O)N[C@@H](C)C(=O)N[C@@H](CCCCN)C(=O)N[C@@H](CCCCN)C(=O)N[C@@H](Cc1ccccc1)C(=O)NCC(=O)N[C@@H](CCCCN)C(=O)N[C@@H](C)C(=O)N[C@@H](Cc1ccccc1)C(=O)N[C@H](C(=O)NCC(=O)N[C@@H](CCC(=O)O)C(=O)N[C@@H](C)C(=O)N[C@@H](CCSC)C(=O)N[C@@H](CC(N)=O)C(=O)N[C@@H](CO)C(=O)O)C(C)C` [GIGKFLHSAKKFGKAFVGEAMNS], for which the MIC in [1] was not below 128 µM; in [2], not below 64 µM; in assay [3] it was 16 µM (≈ 38.8 µg/mL); in assay [4], not below 256 µM.

`CC[C@H](C)[C@H](N)C(=O)NCC(=O)N[C@@H](CCCCN)C(=O)N[C@@H](Cc1ccccc1)C(=O)N[C@@H](CC(C)C)C(=O)N[C@@H](CCCCN)C(=O)N[C@@H](CCCCN)C(=O)N[C@@H](C)C(=O)N[C@@H](CCCCN)C(=O)N[C@@H](CCCCN)C(=O)N[C@@H](Cc1ccccc1)C(=O)NCC(N)=O` [IGKFLKKAKKFG]: the MIC in assay [5] was not below 375 µM; in [6], not below 188 µM; in assay [7] it was 133 µM (≈ 181 µg/mL); in [8], more than 375 µM.

Turning to `CC[C@H](C)[C@H](N)C(=O)N[C@H](C(=O)N[C@@H](CC(C)C)C(=O)N[C@@H](CC(N)=O)C(=O)N1CCC[C@H]1C(=O)N[C@@H](Cc1c[nH]c2ccccc12)C(=O)N[C@@H](CC(=O)O)C(=O)N[C@@H](CCC(N)=O)C(=O)N[C@H](C(=O)N[C@@H](CCCCN)C(=O)O)C(C)C)C(C)C` [IVLNPWDQVK], the MIC in assay [9] is not below 681 µM; in assay [10], not below 1360 µM; in assay [11], 1360 µM (≈ 1650 µg/mL).

`CC(C)C[C@H](N)C(=O)N[C@@H](CCCCN)C(=O)N[C@@H](CCCCN)C(=O)N[C@@H](C)C(=O)N[C@@H](CCCCN)C(=O)N[C@@H](CCCCN)C(=O)N[C@@H](Cc1ccccc1)C(=O)NCC(=O)N[C@@H](CCCCN)C(=O)N[C@@H](C)C(=O)N[C@@H](Cc1ccccc1)C(=O)N[C@H](C(N)=O)C(C)C` [LKKAKKFGKAFV]: the MIC in assay [5] is not below 375 µM; in assay [6], not below 375 µM; in [7], 265 µM (≈ 362 µg/mL); in [8] it was more than 375 µM.

Consider `NC(=O)[C@@H]1CCCN1C(=O)[C@H](CCCN=C(N)N)NC(=O)[C@H](CS)NC(=O)[C@H](Cc1ccccc1)NC(=O)[C@H](CCCN=C(N)N)NC(=O)[C@H](CCCN=C(N)N)NC(=O)[C@H](CCCN=C(N)N)NC(=O)[C@H](CS)NC(=O)[C@H](CCCN=C(N)N)NC(=O)[C@@H]1CCCN1` [PRCRRRFCRP], for which the minimum inhibitory concentration (MIC) was more than 128 µM in [12]; 16 µM (≈ 21.5 µg/mL) in [13]; more than 128 µM in assay [14]; more than 128 µM in assay [15]; more than 128 µM in assay [7]; not below 128 µM in assay [16]. Moreover, the minimal inhibitory concentration (MIC) in assay [17] was not below 128 µM; in assay [11], 16 µM (≈ 21.5 µg/mL).

Take `CC[C@H](C)[C@H](NC(=O)[C@H](C)NC(=O)CNC(=O)[C@H](CCCCN)NC(=O)[C@H](CCC(=O)O)NC(=O)[C@H](CCC(=O)O)NC(=O)[C@H](CC(=O)O)NC(=O)[C@H](CCC(=O)O)NC(=O)[C@H](CC(=O)O)NC(=O)[C@H](CCCN=C(N)N)NC(=O)CNC(=O)[C@H](CCC(N)=O)NC(=O)[C@H](CC(C)C)NC(=O)[C@H](CCCCN)NC(=O)[C@H](CC(=O)O)NC(=O)[C@@H](NC(=O)[C@@H](NC(=O)[C@H](Cc1cnc[nH]1)NC(=O)[C@@H](N)CCCN=C(N)N)[C@@H](C)CC)C(C)C)C(=O)N[C@H](C(=O)N[C@@H](CCCCN)C(=O)N[C@H](C(=O)N[C@@H](CCCCN)C(=O)NCC(=O)NCC(=O)N[C@@H](CC(C)C)C(=O)O)C(C)C)C(C)C` [RHIVDKLQGRDEDEEKGAIVKVKGGL]: the MIC in assay [9] and in [10] was not below 500 µM throughout.

For `CC[C@H](C)[C@H](NC(=O)[C@H](CCCNC(=N)N)NC(=O)[C@@H](NC(=O)[C@H](CCC(N)=O)NC(=O)[C@@H](N)CCCNC(=N)N)[C@@H](C)CC)C(=O)N[C@@H](Cc1c[nH]c2ccccc12)C(=O)N[C@@H](Cc1ccccc1)C(=O)N[C@@H](CCC(N)=O)C(=O)N[C@@H](CC(N)=O)C(=O)N[C@@H](CCCNC(=N)N)C(=O)N[C@@H](CCCNC(=N)N)C(=O)N[C@@H](CCSC)C(=O)N[C@@H](CCCNC(=N)N)C(=O)N[C@@H](Cc1c[nH]c2ccccc12)C(=O)N[C@@H](CCCNC(=N)N)C(=O)N[C@@H](CCCNC(=N)N)C(N)=O` [RQIRIWFQNRRMRWRR], the MIC in assay [12] was more than 50 µM; in assay [5], 16 µM (≈ 37.7 µg/mL); in [18], 25 µM (≈ 58.9 µg/mL); with Escherichia coli it was 25 µM (≈ 58.9 µg/mL); in assay [19] it was not below 50 µM; in assay [7], more than 50 µM. In addition, the MIC in assay [20] is 100 µM (≈ 236 µg/mL); in the assay on Salmonella sp. it was not below 50 µM; with Yersinia enterocolitica, not below 50 µM; in [21], more than 50 µM.

On to `CC[C@H](C)[C@H](NC(=O)[C@H](CCC(N)=O)NC(=O)[C@@H](N)CCCN=C(N)N)C(=O)N[C@@H](CCCN=C(N)N)C(=O)N[C@@H](CCCN=C(N)N)C(=O)N[C@@H](Cc1c[nH]c2ccccc12)C(=O)N[C@@H](Cc1c[nH]c2ccccc12)C(=O)N[C@@H](CCC(N)=O)C(=O)N[C@@H](CCCN=C(N)N)C(N)=O` [RQIRRWWQR], for which the minimum inhibitory concentration (MIC) in [12] was 36.1 µM (≈ 50 µg/mL); in assay [18], 18.1 µM (≈ 25 µg/mL); in the assay with Escherichia coli, 9.03 µM (≈ 12.5 µg/mL); in [19], 25 µM (≈ 34.6 µg/mL); in [7], more than 50 µM; in assay [20] it was 10 µM (≈ 13.8 µg/mL). The MIC (in the assay with Salmonella sp.; in the assay on Yersinia enterocolitica; in [21]; in [11]) was 18.1 µM (≈ 25 µg/mL) throughout.

For the molecule `CC[C@H](C)[C@H](NC(=O)[C@H](Cc1c[nH]c2ccccc12)NC(=O)[C@H](CCCCN)NC(=O)[C@H](Cc1c[nH]c2ccccc12)NC(=O)[C@@H](NC(=O)[C@H](CCCCN)NC(=O)CNC(=O)[C@@H](NC(=O)[C@H](CCCCN)NC(=O)[C@H](CCCCN)NC(=O)[C@H](Cc1c[nH]c2ccccc12)NC(=O)[C@@H](N)CCCN=C(N)N)[C@@H](C)CC)C(C)C)C(N)=O` [RWKKIGKVWKWI], the MIC was 32 µM (≈ 52.1 µg/mL) in assay [12]; 8 µM (≈ 13 µg/mL) in assay [13]; 64 µM (≈ 104 µg/mL) in [14]; 2 µM (≈ 3.25 µg/mL) in the assay with Escherichia coli K88; 4 µM (≈ 6.51 µg/mL) against Escherichia coli K99; 32 µM (≈ 52.1 µg/mL) in assay [15]. The MIC in assay [22] was 32 µM (≈ 52.1 µg/mL); in the assay with Escherichia coli UB1005, 8 µM (≈ 13 µg/mL); in assay [8] it was 32 µM (≈ 52.1 µg/mL); in assay [16], 2 µM (≈ 3.25 µg/mL); in assay [17] it was not below 32 µM; against Escherichia coli 078, 8 µM (≈ 13 µg/mL). This molecule also displayed a minimum inhibitory concentration (MIC) in assay [11] of 8 µM (≈ 13 µg/mL).

Values taken from DBAASP.
